Measurements taken from patent publication US11357782B2, “Treprostinil administration by inhalation” (priority 2006, dated 2022).

What was measured:
[1] = test system: patients with pre-existing gas exchange problems; assay: Ventilation-perfusion matching by multiple inert gas elimination technique (MIGET); details: during NO-inhalation (20 ppm); mean±95% confidence interval; n=5
Protocol: The impact of SMI-TRE on ventilation-perfusion matching was assessed in five patients (30 μg TRE, n=2; 45 μg TRE, n=1; 60 μg TRE, n=2) with pre-existing gas exchange problems by use of the multiple inert gas elimination technique (MIGET), see e.g. Wagner PD, Saltzman HA, West JB. Measurement of continuous distributions of ventilation-perfusion ratios: theory. J Appl Physiol. 1974; 36:588-99; Ghofrani HA, Wiedemann R, Rose F, Schermuly RT, Olschewski H, Weissmann N et al. Sildenafil for treatment of lung fibrosis and pulmonary hypertension: a randomised controlled trial. Lancet. 2002; 360:895-900, both incorporated herein in their entirety.
The inhalation of a highly concentrated aerosol can be in theory prone to disturbances of gas exchange because the deposition of even small amounts of aerosol may deliver high doses locally and thereby antagonize the hypoxic pulmonary vasoconstriction in poorly ventilated areas. This would then lead to increased shunt flow or increase of low ventilation/perfusion (V/Q) areas. This question was addressed in five patients with the multiple inert gas elimination technique (MIGET), the gold-standard for intrapulmonary V/Q ratio determination. The MIGET patients were selected for pre-existing gas exchange limitations. […] Etiologies were iPAH (n=1), CTEPH (n=3), pulmonary fibrosis (n=1).

[2] = test system: patients with moderate to severe precapillary pulmonary hypertension; assay: Study i) randomized crossover study of inhaled treprostinil vs inhaled iloprost, right heart catheter; assay type: in vivo, human
Protocol: All inhalations were performed with the […]® ultrasonic nebulizer ([…], Germany). Study i) was a randomized, open-label, single-blind crossover study. […] Patient characteristics and hemodynamic as well as gas exchange parameters are outlined in Table 3. Each patient inhaled both iloprost and treprostinil on the same day during right heart catheter investigation; the drugs were administered consecutively with a one hour interval between the drug applications. One half of the study patients initially inhaled treprostinil and then inhaled iloprost (n=22), while the other half initially inhaled iloprost and then inhaled treprostinil (n=22). Patients were randomized to one of the two groups and blinded as to the study drugs. Drug effects were monitored for 60 minutes after each inhalation.

| SMILES | shunt flow [1] | area under the curve (AUC) of PVR decrease ([2]; 7.5 μg inhaled in 6 minutes, start of inhalation until 60 min, mean±95% confidence interval) | gas exchange ([2]; after inhalation) | systemic arterial pressure (SAP) ([2]; after inhalation) | side effects (transient flush, headache) ([2]; iloprost 7.5 μg, treprostinil 7.5-15 μg) | maximum effect on PVR ([2]; iloprost vs treprostinil, pooled) | time to maximum effect on PVR after inhalation ([2]; pooled n=44, mean±SEM, p<0.0001) |
| --- | --- | --- | --- | --- | --- | --- | --- |
| [N]=O [NO, nitric oxide] | 5.4±3.0% |  |  |  |  |  |  |
| CC#CCC(C)[C@H](O)/C=C/[C@@H]1[C@H]2C/C(=C/CCCC(=O)O)C[C@H]2C[C@H]1O (stereo partly shown) [iloprost] |  | 7.7±3.7% | did not affect gas exchange | transient decrease | occasionally observed mild side effects | comparable | 8 ± 1 min |
